Key:
[1] = target: T1, glucocorticoid receptor (GR) (Homo sapiens, UniProt P04150); test: Binding to recombinant glucocorticoid receptor, reference [3H]-dexamethasone; conditions: cytosol preparations of Sf9 cells infected with recombinant baculoviruses coding for GR; [3H]-dexamethasone reference
T1 construct: made in house; host or cells: Sf9 cells infected with recombinant baculovirus (cytosol preparation)
T1 sequence (P04150 1-777): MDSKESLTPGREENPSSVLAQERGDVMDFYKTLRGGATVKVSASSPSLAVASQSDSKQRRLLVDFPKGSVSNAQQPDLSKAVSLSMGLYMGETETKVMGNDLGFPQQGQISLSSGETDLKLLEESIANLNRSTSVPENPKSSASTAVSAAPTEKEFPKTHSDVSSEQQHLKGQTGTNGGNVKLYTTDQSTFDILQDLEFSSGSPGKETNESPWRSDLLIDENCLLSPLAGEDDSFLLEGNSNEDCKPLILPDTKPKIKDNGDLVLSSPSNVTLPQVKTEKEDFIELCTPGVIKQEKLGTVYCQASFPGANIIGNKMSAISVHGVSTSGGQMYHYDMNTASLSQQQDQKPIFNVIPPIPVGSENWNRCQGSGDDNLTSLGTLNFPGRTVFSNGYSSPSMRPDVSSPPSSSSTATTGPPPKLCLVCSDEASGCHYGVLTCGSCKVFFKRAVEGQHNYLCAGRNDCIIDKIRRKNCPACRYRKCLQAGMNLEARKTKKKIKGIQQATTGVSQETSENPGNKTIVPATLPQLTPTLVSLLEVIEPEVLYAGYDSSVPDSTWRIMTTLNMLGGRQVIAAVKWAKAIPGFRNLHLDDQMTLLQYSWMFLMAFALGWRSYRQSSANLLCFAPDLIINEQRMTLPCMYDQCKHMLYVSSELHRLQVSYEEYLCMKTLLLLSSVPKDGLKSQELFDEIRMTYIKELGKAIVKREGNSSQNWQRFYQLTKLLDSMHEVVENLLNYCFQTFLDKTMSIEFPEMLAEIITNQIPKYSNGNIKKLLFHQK
Description: (§1) The binding of substances to the glucocorticoid receptor (GR) and other steroid hormone receptors (mineral corticoid receptor (MR), progesterone receptor (PR) and androgen receptor (AR)) is tested with the help of recombinant receptors. Cytosol preparations of Sf9 cells infected with recombinant baculoviruses that code for GR are used for binding tests. In comparison with the reference substance [^3H]-dexamethasone, these substances have a high affinity for GR. An IC50 (GR)=20 nM and IC50 (PR)>1 μM have been obtained for the compound from Example 2.

[2] = target: T2, progesterone receptor (PR) (Homo sapiens, UniProt P06401); test: Binding to recombinant progesterone receptor
T2 sequence (P06401 1-933): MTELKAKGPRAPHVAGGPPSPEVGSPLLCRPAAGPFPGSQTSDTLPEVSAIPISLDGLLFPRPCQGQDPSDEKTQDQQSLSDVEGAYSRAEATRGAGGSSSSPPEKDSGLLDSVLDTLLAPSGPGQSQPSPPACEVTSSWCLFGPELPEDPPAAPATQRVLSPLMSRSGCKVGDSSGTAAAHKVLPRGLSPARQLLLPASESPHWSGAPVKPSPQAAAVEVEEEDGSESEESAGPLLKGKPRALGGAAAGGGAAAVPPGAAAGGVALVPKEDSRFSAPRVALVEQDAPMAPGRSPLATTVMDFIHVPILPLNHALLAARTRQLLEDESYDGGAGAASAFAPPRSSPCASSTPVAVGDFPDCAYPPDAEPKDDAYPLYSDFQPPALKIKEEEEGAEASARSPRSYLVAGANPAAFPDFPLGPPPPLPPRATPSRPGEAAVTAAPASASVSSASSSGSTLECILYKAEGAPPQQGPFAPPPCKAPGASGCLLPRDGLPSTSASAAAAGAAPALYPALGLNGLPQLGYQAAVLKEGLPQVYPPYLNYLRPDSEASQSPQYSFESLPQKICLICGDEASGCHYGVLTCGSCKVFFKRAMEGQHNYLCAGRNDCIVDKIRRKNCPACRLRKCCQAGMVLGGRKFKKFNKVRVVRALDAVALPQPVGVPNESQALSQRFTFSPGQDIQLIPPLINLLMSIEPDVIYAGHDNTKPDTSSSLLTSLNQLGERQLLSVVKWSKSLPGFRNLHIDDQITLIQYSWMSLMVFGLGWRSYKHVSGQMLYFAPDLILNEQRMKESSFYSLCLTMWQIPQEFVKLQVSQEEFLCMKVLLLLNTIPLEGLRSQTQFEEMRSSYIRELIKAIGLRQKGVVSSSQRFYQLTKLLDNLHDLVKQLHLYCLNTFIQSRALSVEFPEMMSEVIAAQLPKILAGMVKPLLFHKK
Description: as §1

[3] = system: secretion of cytokine IL-8 triggered by lipopolysaccharide (LPS) in the human monocyte cell line THP-1; test: Inhibition of LPS-triggered IL-8 secretion in THP-1 cells (ELISA); type: cell-based
Description: The inventive compounds of general formula (I) inhibit the secretion of cytokine IL-8 triggered by lipopolysaccharide (LPS) in the human monocyte cell line THP-1. The concentration of cytokines was determined in the supernatant using commercially available ELISA kits.

IC50 [1]: 20 nM
IC50 [2]: > 1000 nM
IC50 ([3]; Homo sapiens, LPS-stimulated THP-1, IL-8 in supernatant by ELISA, read-out: IC50 (IL8)): 37 nM
Compound: Cc1ccc2c(NC3c4ccc(F)c5c4C(CCO5)CC3(O)C(F)(F)F)cccc2n1 (mixture of isomers) [Example 2, 9-Fluoro-6-[(2-methylquinolin-5-yl)amino]-5-(trifluoromethyl)-2,3,3a,4,5,6-hexahydrobenzo[de]chromen-5-ol]
efficiency with respect to [3H]-dexamethasone as the standard ([3]; IL-8 inhibition in LPS-stimulated THP-1): 70%

From patent publication US20060167025A1, “Tricyclic amino alcohols, processes for synthesis of same and use of same as anti-inflammatory drugs” (priority 2004, published 2006)
